Our source for the IC50 and MNT values is patent US20240009175A9, “TETRAZOLE DERIVATIVES” (Merck Patent GmbH, priority 2020, published 2024).

Each structure is given as a SMILES string. pIC50: −log10 of the molar value.

The target in series [1] is human rec ACSS2 (Homo sapiens (Human), UniProt Q9NR19). Briefly: Biochemical activity ACSS2 assay (AMP-Glo). As to conditions: human recombinant ACSS2, AMP-Glo, 180 min at 37° C. The source says:
Biochemical Activity ACSS2 Assay (IC50 ACSS2 Biochemical)
The biochemical activity assay for ACSS2 is based on the detection of released AMP by AMP-Glo™ Assay kit (Promega, Madison). The assay is run in three steps: the enzymatic reaction in which human rec ACSS2 activates acetate with ATP and Coenzyme A as cosubstrates to acetyl-CoA thereby releasing AMP and the detection reaction of AMP by AMP Glo assay in which after the destruction of the residual ATP with AMP Glo reagent 1 produced AMP is converted to ATP that is measured in a luciferase assay system (detection reagent). The ACSS2 activity correlates with the detected luminescence signal.
The assay was performed in Perkin Elmer 384 well white Proxiplates in a total volume of 8 μl.
1 nM (fc)C-term myc tagged ACSS2 (human, recombinant, Origene, Rockville, US) and a mixture of 100 μM (fc) ATP, 100 μM (fc) Coenzyme A and 500 μM (fc) sodium acetate were incubated in a total volume of 5 μl (50 mM Hepes, 1 mM Mg-chloride, 150 mM NaCl, 1 mM DTT, 0.01% (w/v) BSA, 0.3% DMSO, pH 7.5) in the absence or presence of the test compound (10 dilution concentrations, start conc 30 μM) for 180 min at 37° C. The reaction was stopped and residual ATP destroyed by the addition of 1 μl AMP Glo reagent solution (Promega, Madison, US). After 1h incubation at room temperature 2 μl of AMP Glo detection reagent was added and the assay was incubated for 0.75 hr at room temperature. The luminescence signal was measured with an Envision multimode reader (Perkin Elmer LAS Germany GmbH) at 700 nm in luminescence mode. The full value used was the inhibitor-free reaction. The pharmacological zero value was generated by addition of ACSS2 inhibitor (Ac-CoA Synthase Inhibitor—CAS 508186-14-9-Calbiochem) in a final concentration of 5 μM. The inhibitory values (IC50) were determined using the program Assay Analyzer® from GeneData.

Series [2] deals with ACSS2 (Homo sapiens (Human), UniProt Q9NR19). Briefly: Cellular assay of 14C acetate incorporation into histones (IC50 ACSS2 cellular histone). The series is classed as cell-based. Conditions: HCT-15 cells. The source says: Cellular Assay of ^14C Acetate Incorporation into Histones (IC50 ACSS2 Cellular Histone)
ACSS2, sequence (Q9NR19 whole entry): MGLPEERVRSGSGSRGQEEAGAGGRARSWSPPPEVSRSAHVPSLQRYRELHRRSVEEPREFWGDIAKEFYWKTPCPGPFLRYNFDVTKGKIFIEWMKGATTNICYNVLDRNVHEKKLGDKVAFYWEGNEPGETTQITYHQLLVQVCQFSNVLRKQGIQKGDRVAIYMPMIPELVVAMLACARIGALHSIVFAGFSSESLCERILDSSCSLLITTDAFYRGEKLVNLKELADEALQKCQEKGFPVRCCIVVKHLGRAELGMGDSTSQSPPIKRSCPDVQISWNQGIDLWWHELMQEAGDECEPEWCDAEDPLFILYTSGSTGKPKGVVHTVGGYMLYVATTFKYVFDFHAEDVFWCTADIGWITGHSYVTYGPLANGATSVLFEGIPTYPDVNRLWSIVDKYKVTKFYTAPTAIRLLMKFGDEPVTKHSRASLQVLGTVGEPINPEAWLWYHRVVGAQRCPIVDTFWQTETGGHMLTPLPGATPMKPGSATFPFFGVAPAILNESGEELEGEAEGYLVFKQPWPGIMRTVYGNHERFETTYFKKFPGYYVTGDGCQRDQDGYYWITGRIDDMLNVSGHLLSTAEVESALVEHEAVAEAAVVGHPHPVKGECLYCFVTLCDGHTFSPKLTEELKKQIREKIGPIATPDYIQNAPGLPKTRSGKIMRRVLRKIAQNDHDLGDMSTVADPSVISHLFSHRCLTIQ
This protocol describes a cellular assay capable to quantify endogenous histone acetylation activity in the human HCT-15 cancer cell line following the incorporation of extracellularly administered radiolabeled ^14C acetate with a scintillation based read out on acid extracted histones.
HCT-15 cells are trypsinized, washed and suspended in DMEM culture medium supplemented with penicillin/streptomycin (100 U/mL), sodium pyruvate (1 mM), and 10% FBS
Compounds serial dilutions are prepared in 96-well V-bottom microplate from 10 mM stock solutions in DMSO. From these dilutions 0.5 μl are transferred to a fresh plate including pure DMSO as negative control. The dilutions are prepared such, that the final concentration in the assay is 1/400 of the concentration in the serial dilution. The final DMSO concentration in the assay is 0.25%.
The cell suspension is seeded at densities of 2×10^5 cells per 170 μl into individual wells of a 96 well plate each containing 0.5 μl aliquots of compound serial dilutions and are kept for 1 h in a cell incubator. To each well 30 μL of a mixture containing 0.5 mCi/mL of ^14C-acetate with full medium are added. Then, the wells are incubated for 3 hrs in the cell incubator.
Further steps of the procedure should be conducted on ice or instrumentations precooled to 4° C. Cells are sedimented in the 96-well V-bottom microplate by centrifugation (Eppendorf 5804 R) at 1200 rpm for 5 min. The supernatant is removed and the cells are washed twice with 200 μL of PBS-NaB (5 mM sodium butyrate) buffer by iterative resuspension and centrifugation. Finally, the cells are resuspended in 50 μL of TEB (PBS-NaB+0.5% Triton X-100) and left on ice for 10 minutes. After centrifugation at 2300 rpm for 10 minutes at 4° C. the supernatant is removed, the remaining pellet is suspended in 50 μL of 0.2M HCl and incubated over night at 4° C. After incubation the well plate is shaken for 2 minutes in a MTP plate shaker set to 1200 rpm and then centrifuged at 3700 rpm for 10 mins. The lysate is carefully aspirated (˜43 μL) and transferred into a white MTP plate (Greiner bio-one 65509). 90 μL of Ultima Gold XR scintillation cocktail are added and the plates are sealed with a transparent cover tape before mixing vigorously using plate shaker set to 1200 rpm. Radioactivity from ^14C incorporation in the wells is measured as CPM count in a MicroBeta Trilux luminescence counter.

Series [3] concerns CHO-K1 cells. Briefly: Micronucleus assay (MNT) in vitro. Format: cell-based. The arrangement: key: A: negative, putative negative (micronuclei detected beyond threshold of 60% cyctotoxicity); B: positive. As to conditions: 24 hrs treatment, 0.2 μM to 100 μM. As for the experimental part:
The in vitro MNT assay is performed in CHO-K1 cells due to their stable and well-characterized karyotype, high sensitivity and suitability for a high content imaging approach. They have a basal spontaneous micronucleus frequency of 3-4%.
24 hrs after plating CHO-K1 cells are treated with test compounds for 24 hrs (in duplicates; fixed concentration ranges from 0.2 μM to 100 μM in 2-fold dilution steps). After a medium change cells are incubated for 24 hrs with Cytochalasin B to block cytokinesis and are then fixed and nuclei/micronuclei visualized with a DNA stain. Images are acquired with the Molecular Devices high content imagers IXU or IXM and are analyzed with the dedicated MetaXpress software micronucleus module. Criteria for scoring of micronuclei (MN) are the following: • diameter of the MN should be less than ⅓ of the main nucleus • MN should be separated from or marginally overlap with main nucleus (=no blebs) • MN should have similar staining as the main nucleus
At least 1000 binucleated cells are evaluated per treatment replicate. Mitomycin C is used as reference stimulator of micronucleus formation. Cytotoxicity is evaluated in parallel and defined by comparing total nuclei count in compound-treated samples to neutral control samples treated with vehicle only (1% DMSO) (100% cytotoxicity means all cells are dead or lost).
A test compound is regarded as POSITIVE if generation of micronuclei and exhibition of less than 60% cytotoxicity at the same concentration can be observed.
Compounds are scored only in the soluble concentration range.
Experimental data of the compounds shown in Table 1 in the MNT assay are shown in Table 2 below and classified in the following groups: […]

human rec ACSS2, sequence (Q9NR19 whole entry): as above

As usually defined, the pIC50 is the IC50 on a negative log10 scale, so that one unit is a factor of ten. For `CCn1c(C(O)(c2ccccc2)c2ccncn2)nc2nc(OC)c(-c3nnn[nH]3)cc21` (racemic) [Compound 25, [1-ethyl-5-methoxy-6-(1H-1,2,3,4-tetrazol-5-yl)-1H-imidazo[4,5-b]pyridin-2-yl](phenyl)(pyrimidin-4-yl)methanol], the pIC50 in series [1] and in series [2] was 8.00 to 9.00 throughout. `CCn1c(C(O)(c2ccccc2)c2ccncc2)nc2nc(OC)c(-c3nnn[nH]3)cc21` (racemic) [Compound 43, [1-ethyl-5-methoxy-6-(1H-1,2,3,4-tetrazol-5-yl)-1H-imidazo[4,5-b]pyridin-2-yl](phenyl)(pyridin-4-yl)methanol]: the pIC50 was 7.00 to 8.00 in series [1] and 5.00 to 7.00 in series [2]. The like results for `CCn1c(C(O)(c2ccccc2)c2cccnc2)nc2nc(OC)c(-c3nnn[nH]3)cc21` (racemic) [Compound 44, [1-ethyl-5-methoxy-6-(1H-1,2,3,4-tetrazol-5-yl)-1H-imidazo[4,5-b]pyridin-2-yl](phenyl)(pyridin-3-yl)methanol] were, in that order, 7.00 to 8.00 and 5.00 to 7.00.

Regarding `CCn1c(C(O)(c2ccccc2)c2ccc(OC(F)F)cc2)nc2nc(OC)c(-c3nnn[nH]3)cc21` (racemic) [Compound 53, [4-(difluoromethoxy)phenyl][1-ethyl-5-methoxy-6-(1H-1,2,3,4-tetrazol-5-yl)-1H-imidazo[4,5-b]pyridin-2-yl]phenylmethanol], the negative-log IC50 (pIC50) is 8.00 to 9.00 in series [1] and 7.00 to 8.00 in series [2].

On to `CCn1c(C(O)(c2ccccc2F)c2ccc(OC(F)F)cc2F)nc2nc(OC)c(-c3nnn[nH]3)cc21` (racemic) [Compound 54, [4-(difluoromethoxy)-2-fluorophenyl][1-ethyl-5-methoxy-6-(1H-1,2,3,4-tetrazol-5-yl)-1H-imidazo[4,5-b]pyridin-2-yl](2-fluorophenyl)methanol], for which the negative-log IC50 (pIC50) in series [1] and in series [2] was 8.00 to 9.00 throughout. As for `CCc1c(C(O)(c2ccccc2)c2ccccn2)nc2cc(Cl)c(-c3nnn[nH]3)cn12` (single isomer, unassigned) [Compound 7, [7-chloro-3-ethyl-6-(1H-tetrazol-5-yl)imidazo[1,2-a]pyridin-2-yl]-phenyl-(2-pyridyl)methanol], in series [1], the pIC50 is 7.00 to 8.00. Also, in series [3], the MNT entry is listed as “A”. Turning to `CCc1c(C(O)(c2ccccc2)c2ncccn2)nc2cc(OC)c(-c3nnn[nH]3)cn12` (single isomer, unassigned) [Compound 14, [3-Ethyl-7-methoxy-6-(1H-tetrazol-5-yl)-imidazo[1,2-a]pyridin-2-yl]-phenyl-pyrimidin-2-yl-methanol], the pIC50 in series [1] is 7.00 to 8.00; in series [2], 5.00 to 7.00.

Take `CCc1c(C(O)(c2ccccc2)c2ncccn2)nc2cc(OC)c(-c3nnn[nH]3)cn12` (single isomer, unassigned) [Compound 15, [3-Ethyl-7-methoxy-6-(1H-tetrazol-5-yl)-imidazo[1,2-a]pyridin-2-yl]-phenyl-pyrimidin-2-yl-methanol]: the pIC50 in series [1] was 5.00 to 7.00. On the same count and under the same terms, the figure for `CCc1c(C(O)(c2ccccc2)c2ccn(C)n2)nc2cc(OC)c(-c3nnn[nH]3)cn12` (single isomer, unassigned) [Compound 17, [3-Ethyl-7-methoxy-6-(1H-tetrazol-5-yl)-imidazo[1,2-a]pyridin-2-yl]-(1-methyl-1H-pyrazol-3-yl)-phenyl-methanol] is 5.00 to 7.00. The same measure, in the same setting: under `CCc1c(C(O)(c2ccccc2)c2ccn(C)n2)nc2cc(OC)c(-c3nnn[nH]3)cn12` (single isomer, unassigned) [Compound 18, [3-Ethyl-7-methoxy-6-(1H-tetrazol-5-yl)-imidazo[1,2-a]pyridin-2-yl]-(1-methyl-1H-pyrazol-3-yl)-phenyl-methanol] stands 7.00 to 8.00. Consider `CCn1c(C(O)(c2ccccc2)c2nccs2)nc2nc(OC)c(-c3nnn[nH]3)cc21` (single isomer, unassigned) [Compound 32, [1-ethyl-5-methoxy-6-(1H-1,2,3,4-tetrazol-5-yl)-1H-imidazo[4,5-b]pyridin-2-yl](phenyl)(1,3-thiazol-2-yl)methanol], for which the negative-log IC50 (pIC50) in series [1] is 9.00 to 11.00. The MNT entry in series [3] is on record as “A”.

Consider `CCn1c(C(O)(c2ccccc2)c2ccccn2)nc2nc(OC)c(-c3nnn[nH]3)cc21` (single isomer, unassigned) [Compound 41, [1-ethyl-5-methoxy-6-(1H-1,2,3,4-tetrazol-5-yl)-1H-imidazo[4,5-b]pyridin-2-yl](phenyl)(pyridin-2-yl)methanol], for which the pIC50 in series [1] was 7.00 to 8.00; in series [2], 8.00 to 9.00. In the case of `CCc1cc2nc(C(O)(c3ccccc3)c3ccccc3)c(CC)n2cc1-c1nnn[nH]1` [Compound 1, [3,7-diethyl-6-(1 H-1,2,3,4-tetrazol-5-yl)imidazo[1,2-a]pyridin-2-yl]diphenylmethanol], the pIC50 in series [1] is 8.00 to 9.00. As for `COc1nc2nc(C(O)(c3ccccc3)c3ccccc3)n(C)c2cc1-c1nnn[nH]1` [Compound 24, [5-methoxy-1-methyl-6-(1H-1,2,3,4-tetrazol-5-yl)-1H-imidazo[4,5-b]pyridin-2-yl]diphenylmethanol], the pIC50 in series [1] was 9.00 to 11.00. As for `CCn1c(C(O)(c2ccccc2C)c2ccccc2C)nc2nc(OC)c(-c3nnn[nH]3)cc21` [Compound 39, [1-ethyl-5-methoxy-6-(1H-1,2,3,4-tetrazol-5-yl)-1H-imidazo[4,5-b]pyridin-2-yl]bis(2-methylphenyl)methanol], the negative-log IC50 (pIC50) in series [1] and in series [2] was 7.00 to 8.00 throughout. Consider `[2H]c1c([2H])c([2H])c(C(O)(c2c([2H])c([2H])c([2H])c([2H])c2[2H])c2nc3nc(OC)c(-c4nnn[nH]4)cc3n2CC)c([2H])c1[2H]` [Compound 63, [1-ethyl-5-methoxy-6-(1H-1,2,3,4-tetrazol-5-yl)-1H-imidazo[4,5-b]pyridin-2-yl]bis[(2,3,4,5,6-^2H5)phenyl]methanol], for which the negative logarithm of the IC50 (pIC50) is 9.00 to 11.00 in series [1] and 8.00 to 9.00 in series [2].
